The values that follow come from patent EP2677026A1, “Keratinocyte minimal growth medium and use thereof in an in vitro method for identifying compounds capable of improving skin and hair physiology” (Merz Pharma GmbH & Co. KGaA, priority 2012, dated 2013).

Like-named read-outs stand apart in the source and are kept apart here.

Assay [1] concerns NHEK (normal human epidermal keratinocytes). In words: Minimal growth assay: metabolic activity by resazurin assay of NHEK cultivated in minimal growth medium (MGM) plus test compound. The class given is cell-based. The conditions noted are these: for metabolic activity/cell number compared to the MGM control: highest value of the dose-dependent increase; for dose-depending increase of metabolic activity/cell number compared to the MGM control: 48 h and 72 h, increasing concentrations in MGM; for activity at 100 µM: 100 µm test compound. As for the experimental part:
Metabolic activity was measured by a resazurin assay. In this assay, non-fluorescent resazurin is reduced to fluorescent resorufin in viable cells only. The resulting signal is proportional to the number of cells present and, thus, is an indirect measure of cell number. The assay was carried out by diluting a resazurin (Sigma) stock solution (0,1 mg/ml in PBS) in the respective culture medium at a ratio of 1:11. The resazurin conversion to the fluorescent resorufin by metabolically active cells was recorded at 560Ex/590Em nm using a Synergy™ H4 plate reader (BioTek Instruments). Mean values of relative fluorescence/luminescence units (RFU/RLU) and standard deviation of replicates were analysed by Gene5 software. […] Statistical significance was assessed by comparing mean (+/-SD) values with Student's t-test for independent groups. NHEK were seeded at 30.000 cells/cm^2 into 48-well flat bottom tissue culture plates and cultured in normal keratinocyte growth medium ("GM") at 37°C and 5% CO2. After 12 to 15 h (typically over night) the media was exchanged to MGM with different concentrations of test compound. Controls receive MGM without compounds. Test compounds 1 to 4 (1: […] Ca^2+-pantothenate; 4: folic acid) were prepared according to Table 1 to yield respective stock solutions. The stock solutions were further diluted in minimal growth media (MGM) to obtain different test compound concentrations. […] The negative control wells contained media only plus the respective solvent. Table 1. Test compound and control solutions […] The test compounds were dissolved in DMSO, diluted into MGM and added to the cells. 4 to 6 replicates/concentration were tested. […] Metabolic activity after 48 h (see FIG. 4) and 72 h after incubation (see FIG. 5) was determined by the resazurin assay, and proliferation after 48 h and 72 h after incubation was measured using the CyQuant® Direct Cell Proliferation Assay kit (data not shown).
For orientation: The colour change of resazurin is a common sign of viable cells or microbes.

The test system is the same in assay [2]. In words: Minimal growth assay: proliferation by DNA amount (CyQuant Direct Cell Proliferation Assay kit) of NHEK in MGM plus test compounds. The class given is cell-based. The conditions noted are these: NHEK in MGM plus single compound or combination; MGM control set 100%. As to the method:
Alternatively, cell number was directly assessed by measuring the amount of DNA using the CyQuant® Direct Cell Proliferation Assay kit (Invitrogen). In brief, the two CyQuant® kit solutions were mixed and added to the respective culture medium as described by the supplier. The fluorescence of the DNA intercalating CyQuant® Dye, representing the amount of cells, was recorded at 480Ex/535Em nm using a Synergy™ H4 plate reader (BioTek Instruments). Increase of the number of cells is used as indirect indicator of cell proliferation.
Mean values of relative fluorescence/luminescence units (RFU/RLU) and standard deviation of replicates were analysed by Gene5 software. For a better estimation of test compound's potential metabolic activity and proliferation measured in MGM were set as 100%. Statistical significance was assessed by comparing mean (+/-SD) values with Student's t-test for independent groups.
For measurements of metabolic activity and proliferation, NHEK were seeded at 30,000 cells/cm^2 into a 48-well microtiter flat bottom plate. After over night incubation growth medium 2 was replaced by BM, MGM, and MGM plus test compounds. The test compounds were dissolved in DMSO, diluted into MGM and added to the cells. 4 to 6 replicates/concentration were tested. […]

The mark [3] stands for this setting: after 48 h, MGM control set 100%.
Setting [4] is: after 72 h, MGM control set 100%.
Setting [5] is: Homo sapiens, NHEK, after 72 h, MGM control set 100%, read-out: metabolic activity compared to the MGM control.

As to `N[C@@H](CSSC[C@H](N)C(=O)O)C(=O)O` [L-cystine], the “metabolic activity/cell number compared to the MGM control” value in assay [1] (setting [3]) is reported as “up to 265%”; in assay [1] (setting [4]), “up to 419%”. In addition, the “proliferation (DNA amount) compared to the MGM control” value in assay [2] came out at 282%.
Regarding `Cc1ncc(C[n+]2csc(CCO)c2C)c(N)n1` [Thiamin, thiamine], the entries for the “metabolic activity/cell number compared to the MGM control” value in assay [1] (setting [3]) and in assay [1] (setting [4]) were “up to 138%” and “up to 163%”, respectively.
In the case of `CC(C)(CO)[C@@H](O)C(=O)NCCC(=O)O` [pantothenate, Ca^2+-pantothenate], the “dose-depending increase of metabolic activity/cell number compared to the MGM control” value in assay [1] was “did not show a dose-depending increase”. The activity at 5 µM in assay [1] (Homo sapiens, NHEK, 5 µm test compound, after 48 h, MGM control set 100%, read-out: metabolic activity compared to the MGM control) was found to be 111%. The activity at 100 µM in assay [1] (setting [5]) was found to be 110%.
As to `Nc1nc2ncc(CNc3ccc(C(=O)N[C@@H](CCC(=O)O)C(=O)O)cc3)nc2c(=O)[nH]1` [folic acid], the “dose-depending increase of metabolic activity/cell number compared to the MGM control” value in assay [1] was “did not demonstrate a dose-depending increase”. For the same compound, the activity at 100 µM in assay [1] (Homo sapiens, NHEK, after 48 h, MGM control set 100%, read-out: metabolic activity compared to the MGM control) came to 113%; in assay [1] (setting [5]), 118%.
